Key:
cells [1] = assay: Cell toxicity by total cellular protein synthesis (Bio-Rad Protein Assay) or cell proliferation (XTT); format: cell-based
From the text: Compositions comprising HGDs of the invention, plasmid DNA, and a co-lipid such as DOPE or cholesterol were not appreciably toxic to cells. Toxicity measurements were based upon total cellular protein synthesis (Bio-Rad Protein Assay) or cell proliferation (Cell-Proliferation Kit-XTT, Boehringer Mannheim).

tumors = assay: In vivo anti-tumor efficacy, intratumoral IL-2 plasmid compositions; set-up: species or system mice; settings: for growth of tumors in mice: compositions with IL-2 plasmid DNA and DOPE, given directly into the tumor; for size of tumors, average: with DNA and DOPE; for size of tumors, average / reduction of growth rates of tumors: 1:2 -/+ charge ratio; for reduction of growth rates of tumors: with IL-2 plasmid DNA and DOPE
From the text: Compositions comprising HGDs of the invention, plasmid DNA comprising an IL-2 gene, and DOPE efficaciously retarded the growth of tumors in mice. These model-tumor studies involved implanting a tumor into mice, administering a composition of the invention directly into the tumor, and monitoring the growth of tumors in the mice. A protocol for such a procedure is taught in U.S. application Ser. No. 60/039,709, Raiston et al., “IL-2 Gene Expression and Delivery Systems and Uses,” filed Feb. 10, 1997, incorportated herein by reference in its entirety including any figures, tables, and drawings.

[2] = system: established cell lines and primary neuronal cultures; settings: cited from earlier work
cells [3] = assay: Transfection efficiency: IL-2 expressed by cells given HGD/IL-2 plasmid compositions; format: cell-based; settings: for IL-2 expression by cells: 0.2 μg IL-2 plasmid, cholesterol or DOPE co-lipid, 48 hours
Description: HGDs of the invention formed DNA/HGD complexes that efficiently delivered DNA plasmids to cells. The transfection efficiency was measured after compositions comprising HGDs of the invention, 0.2 μg of DNA plasmids comprising a gene encoding IL-2, and either cholesterol or DOPE as a co-lipid were incubated with cells for 48 hours. The amount of IL-2 expressed by cells administered the compositions was quantified using by an assay disclosed in U.S. application Ser. No. 60/039,709, Raiston et al., “IL-2 Gene Expression and Delivery Systems and Uses,” filed Feb. 10, 1997, incorportated herein by reference in its entirety including any figures, tables, and drawings.

SCCVII tumors = assay: CAT reporter gene expression after injection of lipid/DNA complexes into tumors; format: in vivo; settings: complex with CAT DNA plasmid injected into SCCVII tumors; 10% lactose
Description: A variety of HGD/DNA complexes were injected into SCCVII tumors. […] Other lipophilic molecules included DOTMA complexed with cholesterol, DOTIM complexed with DOPE and cholesterol, MMCE complexed with DOPE and cholesterol and DiP-PE, EPMC complexed with DOPE and cholesterol. All complexes comprised 10% lactose.

In the case of `CCCCCCCCCCCCCCCCO[C@@H]1OC(CO)[C@@H](O)C(O)C1N` (stereo partly drawn) [MPG, 1-mono-palmityl-glucosamine], the “health of cells compared with LipofectAMINE liposome compositions” value (cells [1]) was “healthier”, the “growth of tumors in mice” value (tumors) was “significantly reduced the growth of tumors” and the “size of tumors, average” value (tumors; thirteen days, untreated approximately 1600) was “less than 1200 cubic millimeters”. For the same compound, the “reduction of growth rates of tumors” value (tumors; after thirteen days) was “more than 25%”.

In the case of `CCCCCCCCCCCCCCCCCCN(CCCCCCCCCCCCCCCCCC)C(=O)CNC(=O)C(CCCNCCCN)NCCCN` (stereo not drawn) [DOGS], the “transfection efficiency relative to calcium phosphate” value [2] is listed as “more efficiently than calcium phosphate by at least two orders of magnitude”.

In the case of `CCCCCCCC/C=C\CCCCCCCCO[C@@H]1OC(CO)[C@@H](O)C(O)C1N` (stereo partly drawn) [MOG, 1-mono-oleyl-glucosamine], the “IL-2 expression compared with DOTMA liposomes” value (cells [3]; 1:3 charge ratio) was “as large as the amount of IL-2 expressed by cells administered liposomes comprising an efficient delivery lipid, DOTMA”, the “IL-2 expression by cells” value (cells [3]; -/+ charge ratio 1:0.5) was “not significantly expressed” and the “IL-2 expression by cells” value (cells [3]; -/+ charge ratio 1:3) was “significantly expressed”. The “expression and recovery of total protein, of normal protein levels” value (cells [1]; MOG composition contains DOPE, compared with LipofectAMINE composition) was “more than 75%”, the “health of cells compared with LipofectAMINE liposome compositions” value (cells [1]) was “healthier” and the “expression of the CAT reporter gene” value (SCCVII tumors) was “highest expression of the CAT reporter gene of any of the lipophilic molecule/DNA complexes tested”. The “growth of tumors in mice” value (tumors) was “significantly reduced the growth of tumors”, the “size of tumors, average” value (tumors; nine days, untreated 600) was “less than 400 cubic millimeters” and the “reduction of growth rates of tumors” value (tumors; after nine days) was “more than 30%”.

In the case of `CCCCCCCCCCCCCCCC(=O)OCC(COP(=O)(O)OCCNC(=O)C(CCCNCCCN)NCCCN)OC(=O)CCCCCCCCCCCCCCC` (stereo not drawn) [DPPES], the “transfection efficiency relative to calcium phosphate” value [2] is given as “more efficiently than calcium phosphate by at least two orders of magnitude”.
